Laboratory results: ChEMBL document CHEMBL1147755, “5-heteroatom substituted pyrazoles as canine COX-2 inhibitors. Part 1: Structure-activity relationship studies of 5-alkylamino pyrazoles and discovery of a potent, selective, and orally active analog” (Bioorg Med Chem Lett, 2006)
Active and inactive are the calls of the source. The rule behind the calls is not given here.

What was measured:
Cyclooxygenase-2 = target: T1, Cyclooxygenase-2 (Canis lupus familiaris, UniProt Q8SPQ9)
T1 sequence (Q8SPQ9 whole entry): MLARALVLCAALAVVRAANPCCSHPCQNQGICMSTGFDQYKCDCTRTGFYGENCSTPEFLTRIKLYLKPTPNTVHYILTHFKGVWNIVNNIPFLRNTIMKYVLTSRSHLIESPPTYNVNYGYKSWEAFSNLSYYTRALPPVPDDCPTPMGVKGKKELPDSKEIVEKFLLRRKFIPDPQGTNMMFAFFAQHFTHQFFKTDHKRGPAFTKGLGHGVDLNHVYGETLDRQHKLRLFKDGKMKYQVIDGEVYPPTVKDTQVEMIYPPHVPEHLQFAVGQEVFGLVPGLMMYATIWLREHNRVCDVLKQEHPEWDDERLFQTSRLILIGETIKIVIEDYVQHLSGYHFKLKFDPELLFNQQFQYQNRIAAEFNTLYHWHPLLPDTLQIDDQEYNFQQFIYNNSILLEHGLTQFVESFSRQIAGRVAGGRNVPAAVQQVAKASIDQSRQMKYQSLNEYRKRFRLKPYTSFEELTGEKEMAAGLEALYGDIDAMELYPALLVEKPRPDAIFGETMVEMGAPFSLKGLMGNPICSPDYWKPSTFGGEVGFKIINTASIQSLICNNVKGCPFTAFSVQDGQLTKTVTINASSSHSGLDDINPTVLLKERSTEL
Description: Inhibitory activity against COX2 in canine whole blood

[1] = target: T2, Prostaglandin G/H synthase 1 (Canis lupus familiaris, UniProt Q8HZR1)
T2 sequence (Q8HZR1 whole entry): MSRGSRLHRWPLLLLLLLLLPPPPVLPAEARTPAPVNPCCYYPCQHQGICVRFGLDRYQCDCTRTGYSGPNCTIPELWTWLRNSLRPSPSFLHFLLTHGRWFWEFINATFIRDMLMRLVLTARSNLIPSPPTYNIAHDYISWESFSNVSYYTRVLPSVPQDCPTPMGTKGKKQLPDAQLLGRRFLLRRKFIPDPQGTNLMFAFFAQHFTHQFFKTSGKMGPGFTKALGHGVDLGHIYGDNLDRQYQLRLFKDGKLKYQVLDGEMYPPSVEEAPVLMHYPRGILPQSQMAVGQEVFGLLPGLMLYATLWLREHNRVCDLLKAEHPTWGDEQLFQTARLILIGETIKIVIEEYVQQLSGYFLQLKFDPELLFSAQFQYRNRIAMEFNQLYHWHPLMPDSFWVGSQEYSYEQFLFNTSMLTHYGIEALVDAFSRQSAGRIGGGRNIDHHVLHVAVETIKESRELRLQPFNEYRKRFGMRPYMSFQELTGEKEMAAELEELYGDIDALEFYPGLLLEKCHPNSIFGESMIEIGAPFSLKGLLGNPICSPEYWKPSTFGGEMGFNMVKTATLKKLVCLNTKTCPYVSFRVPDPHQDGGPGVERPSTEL
Description: Inhibitory activity against COX1 in canine whole blood

Canis lupus familiaris = species on record: Canis lupus familiaris; assay: Selectivity of COX1 over COX2 in canine whole blood assay; type: tissue-based
[2] = Tmax in dog administered at 2 mg/kg, po; type: ADME, organism-based, Canis lupus familiaris; design: dose 2 mg/kg, route oral; details: in vivo
[3] = Cmax in dog administered at 2 mg/kg, po; type: ADME, organism-based, Canis lupus familiaris; design: dose 2 mg/kg, route oral; details: in vivo
[4] = Half life in dog administered at 2 mg/kg, po; type: ADME, organism-based, Canis lupus familiaris; design: dose 2 mg/kg, route oral; details: in vivo
Canis familiaris [5] = assay: AUC in dog administered at 2 mg/kg, po; type: ADME, organism-based, Canis lupus familiaris, Plasma; design: dose 2 mg/kg, route oral; details: in vivo
[6] = AUC in cat administered at 0.5 mg/kg, sc; type: ADME, organism-based, Felis catus; design: dose 0.5 mg/kg, route subcutaneous; details: plasma
[7] = Cmax in cat administered at 0.5 mg/kg, sc; type: ADME, organism-based, Felis catus; design: dose 0.5 mg/kg, route subcutaneous; details: in vivo
[8] = Tmax in cat administered at 0.5 mg/kg, sc; type: ADME, organism-based, Felis catus; design: dose 0.5 mg/kg, route subcutaneous; details: in vivo
Canis familiaris [9] = assay: Decrease in lameness induced by synovitis in knee joints of Beagle dogs at 4 mg/kg; type: functional, organism-based; design: dose 4 mg/kg; details: Canis lupus familiaris, Knee joint
[10] = Half life in cat administered at 0.5 mg/kg, sc; type: ADME, organism-based, Felis catus; design: dose 0.5 mg/kg, route subcutaneous; details: in vivo

Row | IC50 (Cyclooxygenase-2) [µM] | IC50 [1] [µM] | Tmax [2] [h] | Cmax [3] [ng/mL] | half-life [4] [h] | AUC (Canis familiaris [5]) [ng·h/mL] | SMILES | Ratio IC50 (Canis lupus familiaris) | AUC [6] [ng·h/mL] | Cmax [7] [ng/mL] | Tmax [8] [h] | Activity (Canis familiaris [9]) | half-life [10] [h]
1 | 0.2 | 4 | – | – | – | – | CCC(C)CNc1c(C#N)c(C(F)F)nn1-c1ccc(S(N)(=O)=O)cn1 (configuration not stated) | 21.9 | – | – | – | – | –
2 | 0.144 | 15.5 | – | – | – | – | CS(=O)(=O)c1ccc(-n2nc(C(F)(F)F)c(C#N)c2NC2CC3CCC2C3)nc1 (configuration not stated) | 107 | – | – | – | – | –
3 | 0.36 | 18 | – | – | – | – | CC(C)(C)CNc1c(C#N)c(C(F)F)nn1-c1ccc(S(N)(=O)=O)cn1 | 48.2 | – | – | – | – | –
4 | 0.11 | 22 | – | – | – | – | CS(=O)(=O)c1ccc(-n2nc(C(F)(F)F)c(C#N)c2NCC2CC2)nc1 | 200 | – | – | – | – | –
5 | 0.063 | 16.5 | 0.5 | 86 | 2 | 118 | CS(=O)(=O)c1ccc(-n2nc(C(F)(F)F)c(C#N)c2NCC2CCCO2)nc1 (configuration not stated) | 262 | – | – | – | – | –
6 | 0.197 | 6.7 | – | – | – | – | CCC(CC)Nc1c(C#N)c(C(F)(F)F)nn1-c1ccc(S(C)(=O)=O)cn1 | 33.8 | – | – | – | – | –
7 | 0.126 | > 50 | – | – | – | – | CS(=O)(=O)c1ccc(-n2nc(C(F)(F)F)c(C#N)c2NCC2OCCO2)nc1 | > 397 | – | – | – | – | –
8 | 0.13 | 12.9 | 0.8 | 92 | 2.1 | 281 | CS(=O)(=O)c1ccc(-n2nc(C(F)F)c(C#N)c2N2CCCCCC2)nc1 | 99.3 | – | – | – | – | –
9 | 0.14 | 15.5 | – | – | – | – | N#Cc1c(C(F)(F)F)nn(-c2ccc(S(N)(=O)=O)cn2)c1NC1CC2CCC1C2 (configuration not stated) | 107 | – | – | – | – | –
10 | 0.095 | > 50 | – | – | – | – | CC1CC(C)CN(c2c(C#N)c(C(F)(F)F)nn2-c2ccc(S(C)(=O)=O)cn2)C1 (configuration not stated) | > 526 | – | – | – | – | –
11 | 0.297 | 10.8 | – | – | – | – | CC1CCCCC1Nc1c(C#N)c(C(F)(F)F)nn1-c1ccc(S(C)(=O)=O)cn1 (configuration not stated) | 36 | – | – | – | – | –
12 | 0.13 | 13.2 | – | – | – | – | CC(C)(C)CNc1c(C#N)c(C(F)(F)F)nn1-c1ccc(S(N)(=O)=O)cn1 | 98.7 | – | – | – | – | –
13 | 0.15 | > 50 | – | – | – | – | CS(=O)(=O)c1ccc(-n2nc(C(F)(F)F)c(C#N)c2N2CCCCC2)nc1 | > 325 | – | – | – | – | –
14 | 0.132 | 3.4 | – | – | – | – | CC(C)C(C)Nc1c(C#N)c(C(F)(F)F)nn1-c1ccc(S(C)(=O)=O)cn1 (configuration not stated) | 25.8 | – | – | – | – | –
15 | 1.87 | 42.6 | – | – | – | – | CC1CC(C)CN(c2c(C#N)c(C(F)(F)F)nn2-c2ccc(S(N)(=O)=O)cn2)C1 (configuration not stated) | 22.8 | – | – | – | – | –
16 | 0.21 | 7 | 0.5 | 506 | 1.5 | 2100 | C[C@@H]1C[C@H](C)CN(c2c(C#N)c(C(F)F)nn2-c2ccc(S(N)(=O)=O)cn2)C1 | 34.7 | – | – | – | – | –
17 | 0.2 | 36.3 | – | – | – | – | CC(C)(C)CNc1c(C#N)c(C(F)F)nn1-c1ccc(S(C)(=O)=O)cn1 | 180 | – | – | – | – | –
18 | 0.19 | > 50 | – | – | – | – | CS(=O)(=O)c1ccc(-n2nc(C(F)F)c(C#N)c2NCC2OCCO2)nc1 | > 259 | – | – | – | – | –
19 | 0.115 | 21.5 | – | – | – | – | Cc1ccc(CNc2c(C#N)c(C(F)(F)F)nn2-c2ccc(S(C)(=O)=O)cn2)cc1 | 187 | – | – | – | – | –
20 | 0.03 | 2 | 0.5 | 151 | 4.6 | 450 | CC1CCCN(c2c(C#N)c(C(F)F)nn2-c2ccc(S(C)(=O)=O)cn2)C1 (configuration not stated) | 75 | – | – | – | – | –
21 | 7.9 | > 50 | – | – | – | – | C[C@@H]1CN(c2c(C#N)c(C(F)(F)F)nn2-c2ccc(S(N)(=O)=O)cn2)C[C@H](C)O1 | > 6.3 | – | – | – | – | –
22 | 0.19 | 4.5 | 1.3 | 310 | 2.4 | 910 | CCC(C)CNc1c(C#N)c(C(F)(F)F)nn1-c1ccc(S(N)(=O)=O)cn1 (configuration not stated) | 23.1 | – | – | – | – | –
23 | 0.23 | > 50 | – | – | – | – | CC(C)(C)CNc1c(C#N)c(C(F)(F)F)nn1-c1ccc(S(C)(=O)=O)cn1 | > 217 | – | – | – | – | –
24 | 0.14 | > 50 | 1 | 134 | 30 | 1950 | C[C@@H]1CN(c2c(C#N)c(C(F)(F)F)nn2-c2ccc(S(C)(=O)=O)cn2)C[C@H](C)O1 | > 357 | – | – | – | – | –
25 | 5 | > 50 | – | – | – | – | C[C@@H]1CN(c2c(C#N)c(C(F)F)nn2-c2ccc(S(N)(=O)=O)cn2)C[C@H](C)O1 | > 10 | – | – | – | – | –
26 | 0.36 | 40.8 | – | – | – | – | CC(C)Nc1c(C#N)c(C(F)(F)F)nn1-c1ccc(S(C)(=O)=O)cn1 | 114 | – | – | – | – | –
27 | 1.25 | 14.6 | 1.5 | 528 | 1 | 1360 | N#Cc1c(C(F)(F)F)nn(-c2ccc(S(N)(=O)=O)cn2)c1NCC1CCCO1 (configuration not stated) | 11.7 | – | – | – | – | –
28 | 0.125 | 5.6 | – | – | – | – | CS(=O)(=O)c1ccc(-n2nc(C(F)(F)F)c(C#N)c2NCc2cccs2)nc1 | 44.5 | – | – | – | – | –
29 | 0.42 | 20.9 | – | – | – | – | CS(=O)(=O)c1ccc(-n2nc(C(F)F)c(C#N)c2NC2CC3CCC2C3)nc1 (configuration not stated) | 49.8 | – | – | – | – | –

Row | SMILES | IC50 (Cyclooxygenase-2) [µM] | IC50 [1] [µM] | Tmax [2] [h] | Cmax [3] [ng/mL] | half-life [4] [h] | AUC (Canis familiaris [5]) [ng·h/mL] | Ratio IC50 (Canis lupus familiaris) | AUC [6] [ng·h/mL] | Cmax [7] [ng/mL] | Tmax [8] [h] | Activity (Canis familiaris [9]) | half-life [10] [h]
30 | C[C@@H]1CN(c2c(C#N)c(C(F)F)nn2-c2ccc(S(C)(=O)=O)cn2)C[C@H](C)O1 | 0.24 | 43.8 | 1.4 | 815 | 11 | 4830 | 186 | 26800 | 194 | 28 | Active | 60
